Columns and labels:
lipoamide = compound: NC(=O)CCCCC1CCSS1 [lipoamide]; assay: thermal stability z-score vs DMSO; higher = more thermally stabilized by treatment; conditions: HeLa, lipoamide concentration 100 µM
Method: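 Cellular thermal proteome profiling in HeLa cells. Cells were treated with 100 µM lipoamide for 1 h, with or without 1 mM arsenate for a further 1 h, then heated to ten temperatures (37-66.3 °C), and soluble protein was quantified by TMT mass spectrometry relative to 0.1% DMSO controls. The thermal stability score (sum of log2 fold changes minus the abundance score) was transformed to a z-score; mean of n = 3 experiments.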

potassium arsenate = compound: O=[As]([O-])(O)O.[K+] [potassium arsenate]; assay: as above; conditions: HeLa; arsenate concentration 1 mM
Method: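 Cellular thermal proteome profiling in HeLa cells treated with 1 mM arsenate for 1 h (DMSO pretreatment), heated to ten temperatures (37-66.3 °C). Soluble protein was quantified by TMT mass spectrometry relative to DMSO controls; the thermal stability score was transformed to a z-score; mean of n = 3 experiments.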

[1] = arsenate co-treatment: 1 mM arsenate 1 h
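Further: each temperature applied for 3 min, abundance score taken as mean log2 fold change at the two lowest temperatures, z-score obtained by mean subtraction and division by SD.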

UniProt O77932, sequence (O77932 whole entry): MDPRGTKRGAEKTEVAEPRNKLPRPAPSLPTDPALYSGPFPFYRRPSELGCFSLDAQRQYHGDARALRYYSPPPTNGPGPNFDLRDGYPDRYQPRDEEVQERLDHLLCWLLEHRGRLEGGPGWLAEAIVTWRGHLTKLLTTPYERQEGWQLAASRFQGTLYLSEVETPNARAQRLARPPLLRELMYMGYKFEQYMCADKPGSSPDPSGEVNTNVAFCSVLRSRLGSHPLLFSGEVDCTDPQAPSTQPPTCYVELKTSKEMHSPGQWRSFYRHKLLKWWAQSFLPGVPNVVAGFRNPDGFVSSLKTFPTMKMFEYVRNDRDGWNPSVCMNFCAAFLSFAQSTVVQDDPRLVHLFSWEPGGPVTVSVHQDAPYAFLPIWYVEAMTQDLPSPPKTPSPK
UniProt Q8NEY8, sequence (Q8NEY8 whole entry): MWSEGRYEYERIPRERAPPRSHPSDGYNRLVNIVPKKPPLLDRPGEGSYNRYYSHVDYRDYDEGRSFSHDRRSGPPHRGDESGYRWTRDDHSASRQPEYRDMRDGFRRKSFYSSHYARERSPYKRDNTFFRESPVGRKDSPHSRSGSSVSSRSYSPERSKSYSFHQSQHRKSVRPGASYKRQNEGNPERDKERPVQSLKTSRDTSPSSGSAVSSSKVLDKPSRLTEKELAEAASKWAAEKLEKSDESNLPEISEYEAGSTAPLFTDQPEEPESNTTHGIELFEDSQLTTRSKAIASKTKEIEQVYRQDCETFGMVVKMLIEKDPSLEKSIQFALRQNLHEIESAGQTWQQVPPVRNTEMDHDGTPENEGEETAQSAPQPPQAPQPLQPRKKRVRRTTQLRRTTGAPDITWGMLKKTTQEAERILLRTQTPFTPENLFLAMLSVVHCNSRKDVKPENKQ
UniProt Q99447, sequence (Q99447 whole entry): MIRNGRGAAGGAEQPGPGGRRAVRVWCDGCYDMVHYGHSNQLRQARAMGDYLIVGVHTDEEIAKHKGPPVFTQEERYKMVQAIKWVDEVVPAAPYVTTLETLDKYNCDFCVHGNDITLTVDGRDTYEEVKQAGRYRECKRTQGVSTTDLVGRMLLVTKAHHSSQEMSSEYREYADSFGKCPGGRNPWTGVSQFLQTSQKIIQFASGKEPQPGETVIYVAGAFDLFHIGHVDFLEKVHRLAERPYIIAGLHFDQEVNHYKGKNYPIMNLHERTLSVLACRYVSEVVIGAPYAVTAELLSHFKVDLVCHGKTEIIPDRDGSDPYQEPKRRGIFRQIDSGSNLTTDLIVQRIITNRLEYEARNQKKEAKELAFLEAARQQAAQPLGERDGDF
UniProt Q969H6, sequence (Q969H6 whole entry): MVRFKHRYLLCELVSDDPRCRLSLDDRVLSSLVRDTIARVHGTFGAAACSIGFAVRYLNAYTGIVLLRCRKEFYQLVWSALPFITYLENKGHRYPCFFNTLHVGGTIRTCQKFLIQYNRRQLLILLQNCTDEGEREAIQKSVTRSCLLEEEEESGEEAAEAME
UniProt Q9BT40, sequence (Q9BT40 whole entry): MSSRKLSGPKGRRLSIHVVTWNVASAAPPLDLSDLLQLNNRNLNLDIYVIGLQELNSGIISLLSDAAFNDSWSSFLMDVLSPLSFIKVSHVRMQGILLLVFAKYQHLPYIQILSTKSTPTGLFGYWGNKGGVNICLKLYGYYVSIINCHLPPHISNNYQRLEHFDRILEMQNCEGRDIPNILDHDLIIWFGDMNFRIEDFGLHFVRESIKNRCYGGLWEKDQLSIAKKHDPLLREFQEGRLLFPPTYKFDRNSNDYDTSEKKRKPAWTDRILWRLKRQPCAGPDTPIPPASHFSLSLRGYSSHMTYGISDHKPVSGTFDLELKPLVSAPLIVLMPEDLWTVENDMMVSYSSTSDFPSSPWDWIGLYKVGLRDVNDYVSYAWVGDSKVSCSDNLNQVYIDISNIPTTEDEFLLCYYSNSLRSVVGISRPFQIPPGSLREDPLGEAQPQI
UniProt Q9Y2X3, sequence (Q9Y2X3 whole entry): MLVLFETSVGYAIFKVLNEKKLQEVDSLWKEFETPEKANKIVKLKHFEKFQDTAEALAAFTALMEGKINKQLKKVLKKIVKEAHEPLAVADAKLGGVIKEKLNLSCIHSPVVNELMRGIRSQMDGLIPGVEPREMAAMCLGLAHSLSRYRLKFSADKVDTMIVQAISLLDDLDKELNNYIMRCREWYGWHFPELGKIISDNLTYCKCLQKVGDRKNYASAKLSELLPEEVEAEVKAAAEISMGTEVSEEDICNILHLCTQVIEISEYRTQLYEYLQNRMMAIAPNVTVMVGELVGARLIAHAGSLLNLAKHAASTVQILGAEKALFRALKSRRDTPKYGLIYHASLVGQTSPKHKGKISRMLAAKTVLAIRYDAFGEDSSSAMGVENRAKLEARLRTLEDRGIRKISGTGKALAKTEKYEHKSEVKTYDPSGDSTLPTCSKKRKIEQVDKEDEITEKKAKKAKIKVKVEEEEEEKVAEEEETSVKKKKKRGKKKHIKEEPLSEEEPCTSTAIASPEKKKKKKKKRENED
UniProt Q9UJX3, sequence (Q9UJX3 whole entry): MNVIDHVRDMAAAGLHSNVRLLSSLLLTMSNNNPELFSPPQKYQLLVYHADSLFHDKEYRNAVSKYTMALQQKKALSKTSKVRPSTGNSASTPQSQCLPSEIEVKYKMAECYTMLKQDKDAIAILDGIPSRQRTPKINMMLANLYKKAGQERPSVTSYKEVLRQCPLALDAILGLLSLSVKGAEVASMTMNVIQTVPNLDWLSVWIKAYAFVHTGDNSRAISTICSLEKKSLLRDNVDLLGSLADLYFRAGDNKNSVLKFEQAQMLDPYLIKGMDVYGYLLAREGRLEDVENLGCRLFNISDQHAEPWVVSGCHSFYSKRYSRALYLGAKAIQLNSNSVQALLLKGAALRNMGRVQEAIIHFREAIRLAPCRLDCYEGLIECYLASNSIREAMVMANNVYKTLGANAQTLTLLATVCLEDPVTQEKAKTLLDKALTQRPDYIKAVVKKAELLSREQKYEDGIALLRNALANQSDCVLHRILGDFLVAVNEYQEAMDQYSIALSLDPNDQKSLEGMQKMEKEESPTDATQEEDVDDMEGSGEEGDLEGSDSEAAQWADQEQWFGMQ
UniProt P42224, sequence (P42224 whole entry): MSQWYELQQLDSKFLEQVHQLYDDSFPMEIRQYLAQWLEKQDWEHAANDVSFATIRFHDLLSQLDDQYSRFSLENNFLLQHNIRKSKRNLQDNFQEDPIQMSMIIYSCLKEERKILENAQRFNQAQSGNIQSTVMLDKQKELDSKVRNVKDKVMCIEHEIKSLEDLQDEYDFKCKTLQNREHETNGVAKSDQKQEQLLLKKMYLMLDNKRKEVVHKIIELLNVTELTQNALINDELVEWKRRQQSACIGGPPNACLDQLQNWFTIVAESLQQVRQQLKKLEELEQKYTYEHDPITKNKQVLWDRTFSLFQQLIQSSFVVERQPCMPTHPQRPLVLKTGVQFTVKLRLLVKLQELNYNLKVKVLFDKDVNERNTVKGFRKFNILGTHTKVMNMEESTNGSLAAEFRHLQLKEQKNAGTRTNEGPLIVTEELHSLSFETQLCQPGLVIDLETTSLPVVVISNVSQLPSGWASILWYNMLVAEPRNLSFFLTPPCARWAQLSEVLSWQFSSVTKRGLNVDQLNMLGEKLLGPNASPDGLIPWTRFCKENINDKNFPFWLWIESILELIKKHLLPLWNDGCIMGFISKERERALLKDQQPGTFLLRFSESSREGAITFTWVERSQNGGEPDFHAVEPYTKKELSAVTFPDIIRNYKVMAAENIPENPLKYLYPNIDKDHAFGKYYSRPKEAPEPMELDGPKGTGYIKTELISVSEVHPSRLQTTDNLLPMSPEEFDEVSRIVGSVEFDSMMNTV
UniProt Q96AT1, sequence (Q96AT1 whole entry): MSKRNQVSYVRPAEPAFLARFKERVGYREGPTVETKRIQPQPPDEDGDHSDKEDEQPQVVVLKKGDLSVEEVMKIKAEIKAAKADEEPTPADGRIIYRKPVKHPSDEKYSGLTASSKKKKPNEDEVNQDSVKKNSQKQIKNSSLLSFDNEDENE
UniProt Q7Z6B0, sequence (Q7Z6B0 whole entry): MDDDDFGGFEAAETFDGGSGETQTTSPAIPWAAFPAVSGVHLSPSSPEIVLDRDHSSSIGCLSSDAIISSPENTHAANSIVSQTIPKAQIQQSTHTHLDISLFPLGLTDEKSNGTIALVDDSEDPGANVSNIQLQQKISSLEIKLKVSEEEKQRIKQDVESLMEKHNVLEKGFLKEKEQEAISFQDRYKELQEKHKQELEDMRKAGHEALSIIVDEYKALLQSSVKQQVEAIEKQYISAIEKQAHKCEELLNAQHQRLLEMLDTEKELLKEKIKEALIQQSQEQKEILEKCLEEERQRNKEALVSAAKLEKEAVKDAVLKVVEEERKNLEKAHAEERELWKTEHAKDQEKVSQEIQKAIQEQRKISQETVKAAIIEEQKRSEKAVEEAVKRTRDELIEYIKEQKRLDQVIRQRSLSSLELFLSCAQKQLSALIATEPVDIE
UniProt A6NDU8, sequence (A6NDU8 whole entry): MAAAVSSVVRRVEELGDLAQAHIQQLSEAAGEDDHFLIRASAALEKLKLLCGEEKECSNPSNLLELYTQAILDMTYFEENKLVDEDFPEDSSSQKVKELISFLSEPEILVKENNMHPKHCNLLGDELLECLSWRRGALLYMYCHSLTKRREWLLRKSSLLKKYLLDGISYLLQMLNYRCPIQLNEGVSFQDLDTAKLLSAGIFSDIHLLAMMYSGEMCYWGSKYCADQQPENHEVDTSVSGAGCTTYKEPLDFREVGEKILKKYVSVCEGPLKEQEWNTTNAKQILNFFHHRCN
UniProt Q9UBV8, sequence (Q9UBV8 whole entry): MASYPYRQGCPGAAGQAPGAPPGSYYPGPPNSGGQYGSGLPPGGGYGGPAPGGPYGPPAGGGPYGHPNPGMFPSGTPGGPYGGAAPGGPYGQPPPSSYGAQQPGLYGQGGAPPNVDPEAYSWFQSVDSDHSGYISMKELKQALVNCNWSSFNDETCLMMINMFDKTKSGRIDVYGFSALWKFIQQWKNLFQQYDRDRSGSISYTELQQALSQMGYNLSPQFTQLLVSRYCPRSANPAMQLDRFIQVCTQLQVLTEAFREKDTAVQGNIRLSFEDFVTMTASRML

Row | Target | thermal stability z-score (lipoamide; [1]) | thermal stability z-score (lipoamide; arsenate co-treatment: none) | thermal stability z-score (potassium arsenate)
1 | CHMP4B (UniProt Q9H444) | 0.0919 | 0.359 | -0.176
2 | DCAF11 (UniProt Q8TEB1) | 0.101 | 0.343 | -0.996
3 | DXO (UniProt O77932) | 0.186 | 0.216 | 0.0286
4 | PYGB (UniProt P11216) | 0.243 | 0.0472 | -1.24
5 | ZMYM3 (UniProt Q14202) | 0.69 | 0.308 | -1.2
6 | IMP3 (UniProt Q9NV31) | -0.323 | -0.228 | 0.389
7 | FAM117B (UniProt Q6P1L5) | -1.14 | 0.461 | 0.314
8 | MRPL3 (UniProt P09001) | -0.851 | -0.0275 | -0.132
9 | SIPA1 (UniProt Q96FS4) | -0.295 | 0.0519 | 0.319
10 | CSF2RA (UniProt P15509) | 0.513 | 0.365 | 0.19
11 | POP5 (UniProt Q969H6) | -0.5 | -0.587 | -0.617
12 | NLRX1 (UniProt Q86UT6) | 0.128 | 0.211 | -0.0617
13 | PTPRS (UniProt Q13332) | -0.214 | -0.198 | -0.0489
14 | SLC4A7 (UniProt Q9Y6M7) | -0.0849 | 0.00104 | -0.747
15 | CYB5B (UniProt O43169) | 1.05 | 0.411 | 0.322
16 | INPP5K (UniProt Q9BT40) | -0.0181 | 0.225 | 0.268
17 | PROCR (UniProt Q9UNN8) | 1.19 | 0.359 | 1.04
18 | GNA11 (UniProt P29992) | 0.729 | 0.404 | -1.21
19 | NDUFB6 (UniProt O95139) | 0.071 | 0.306 | 0.873
20 | RUFY2 (UniProt Q8WXA3) | -0.19 | -0.0853 | -0.0152
21 | UBXN4 (UniProt Q92575) | -0.125 | -0.121 | -0.265
22 | DBNL (UniProt Q9UJU6) | 0.473 | 0.208 | 0.99
23 | MAPRE2 (UniProt Q15555) | -0.858 | 0.732 | 1.11
24 | DHX34 (UniProt Q14147) | 0.0163 | -0.0341 | -0.164

Row | Target | thermal stability z-score (lipoamide; [1]) | thermal stability z-score (lipoamide; arsenate co-treatment: none) | thermal stability z-score (potassium arsenate)
25 | NCOR2 (UniProt Q9Y618) | 0.182 | 0.227 | 0.138
26 | MAP1S (UniProt Q66K74) | -0.223 | -0.342 | -0.318
27 | ENOSF1 (UniProt Q7L5Y1) | -0.0529 | 0.0795 | -1.01
28 | RELA (UniProt Q04206) | 0.384 | 0.867 | 0.374
29 | STAT1 (UniProt P42224) | -0.65 | -0.206 | 0.502
30 | CCDC91 (UniProt Q7Z6B0) | 0.136 | 0.181 | 1.21
31 | STK10 (UniProt O94804) | -0.201 | -0.0461 | 0.146
32 | PEF1 (UniProt Q9UBV8) | 0.534 | 0.979 | 0.494
33 | TOR3A (UniProt Q9H497) | -1.02 | -0.712 | 0.553
34 | TMEM186 (UniProt Q96B77) | -1.59 | -0.895 | -0.803
35 | EPS15L1 (UniProt Q9UBC2) | 0.0401 | 0.0523 | 0.4
36 | PCBP1 (UniProt Q15365) | -0.057 | 0.0883 | -1.31
37 | CHD1L (UniProt Q86WJ1) | -0.114 | -0.0149 | -0.109
38 | CCDC18 (UniProt Q5T9S5) | 0.0532 | -0.042 | 0.0398
39 | CLINT1 (UniProt Q14677) | 0.199 | 0.142 | 1.08
40 | KIF1BP (UniProt Q96EK5) | 0.371 | -0.0427 | 0.587
41 | PCYT2 (UniProt Q99447) | 0.0344 | -0.0669 | -0.938
42 | CDC34 (UniProt P49427) | -0.142 | -0.0805 | 0.0868
43 | KIAA1143 (UniProt Q96AT1) | -0.286 | 0.26 | -0.385
44 | C5ORF51 (UniProt A6NDU8) | -1 | -0.695 | -0.796
45 | NUP37 (UniProt Q8NFH4) | 0.338 | -0.0489 | 0.82
46 | RMDN1 (UniProt Q96DB5) | 0.0143 | -0.0301 | 0.171
47 | MMAA (UniProt Q8IVH4) | 0.33 | -0.0208 | -1.04
48 | PWP1 (UniProt Q13610) | -0.0751 | -0.259 | -2.52

Row | Target | thermal stability z-score (lipoamide; [1]) | thermal stability z-score (lipoamide; arsenate co-treatment: none) | thermal stability z-score (potassium arsenate)
49 | ZNF638 (UniProt Q14966) | 0.83 | 0.27 | -0.032
50 | MRPL33 (UniProt O75394) | -0.539 | -0.723 | -0.812
51 | PRSS56 (UniProt P0CW18) | -3.63 | -2.95 | 0.756
52 | CAMK2D (UniProt Q13557) | 0.111 | 0.215 | -0.0188
53 | PGRMC1 (UniProt O00264) | 0.421 | 0.452 | 0.982
54 | SLC37A4 (UniProt O43826) | 1.26 | -0.205 | -0.212
55 | CEP350 (UniProt Q5VT06) | -0.154 | -0.182 | -0.0541
56 | DCP2 (UniProt Q8IU60) | -0.0416 | 0.195 | -0.203
57 | CLPTM1L (UniProt Q96KA5) | -2.13 | -1.51 | 0.279
58 | YAP1 (UniProt P46937) | 0.509 | 0.727 | 0.0991
59 | LRWD1 (UniProt Q9UFC0) | -0.0805 | -0.0419 | -0.324
60 | CYCS (UniProt P99999) | 0.873 | 0.819 | -0.152
61 | MT (UniProt Q8IVS2) | -0.281 | -0.555 | -0.404
62 | SLC35D1 (UniProt Q9NTN3) | -2.29 | -2.36 | -1.34
63 | ANAPC7 (UniProt Q9UJX3) | 0.306 | 0.186 | 0.251
64 | NOP58 (UniProt Q9Y2X3) | 0.0369 | -0.0387 | 0.471
65 | BMP2K (UniProt Q9NSY1) | -0.986 | -0.217 | 0.122
66 | NEGR1 (UniProt Q7Z3B1) | 0.758 | -0.0845 | -0.617
67 | RAB29 (UniProt O14966) | 0.114 | -0.0606 | 0.157
68 | PPHLN1 (UniProt Q8NEY8) | 0.687 | 0.672 | -0.137
69 | COPS3 (UniProt Q9UNS2) | 0.508 | 0.201 | 0.344
70 | CLUH (UniProt O75153) | 0.336 | 1.47 | -0.134
71 | MTIF3 (UniProt Q9H2K0) | 0.621 | 0.197 | 0.55
